Patent publication US12091425B2 (AMGEN INC., priority 2016, dated 2024)

Key:
[1] = target: T1, Mcl-1/Bim interaction, recombinant human Mcl-1 (171-327) (Homo sapiens, UniProt Q07820); assay: Cell free Mcl-1: Bim Affinity Assay (Mcl-1 HTRF); type: binding; conditions: TR-FRET, 0.1 nM Mcl-1 (171-327), 0.05 nM biotin-Bim (51-76)
T1 construct: made in house
Method in brief: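 TR-FRET competition assay with biotinylated human Bim peptide (residues 51-76); reaction plates incubated overnight before reading. IC50 values came from duplicate data fitted to a four-parameter sigmoidal competition curve.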

[2] = system: OPM-2 human multiple myeloma cell line; assay: Cell Viability Assay (OPM-2 10 FBS); type: cell-based; conditions: Homo sapiens, OPM-2, 16 h, OPM-2 cells, 16 h, CellTiter-Glo
Method in brief: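 ATP-based luminescence (CellTiter-Glo) measured after a 16 h compound treatment of OPM-2 cells seeded at 3000 cells/well in 10% FBS medium. IC50 values derived by 4-parameter logistic fitting of serial dilutions.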

T1 sequence (Q07820 171-327): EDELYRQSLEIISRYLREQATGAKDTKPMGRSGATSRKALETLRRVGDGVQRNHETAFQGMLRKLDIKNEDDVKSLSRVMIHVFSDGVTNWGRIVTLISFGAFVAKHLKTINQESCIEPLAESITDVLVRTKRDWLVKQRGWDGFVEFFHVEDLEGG

CC(C)NC(=O)CO[C@H]1/C=C/C[C@H](C)[C@@H](C)S(=O)(=O)NC(=O)c2ccc3c(c2)N(C[C@@H]2CC[C@H]21)C[C@@]1(CCCc2cc(Cl)ccc21)CO3 [Example 296, 2-(((1S,3′R,6′R,7′S,8′E,11′S,12′R)-6-chloro-11′,12′-dimethyl-13′,13′-dioxido-15′-oxo-3,4-dihydro-2H-spiro[naphthalene-1,22′-[20]oxa[13]thia[1,14]diazatetracyclo[14.7.2.0^3,6.0^19,24]pentacosa [8,16,18,24]tetraen]-7′-yl)oxy)-N-(1-methylethyl)acetamide]
IC50 [1]: 0.496 nM | IC50 [2]: 524 nM

C[C@@H]1[C@@H](C)C/C=C/[C@H](OCC(=O)NCC(F)(F)F)[C@@H]2CC[C@H]2CN2C[C@@]3(CCCc4cc(Cl)ccc43)COc3ccc(cc32)C(=O)NS1(=O)=O [Example 297, 2-(((1S,3′R,6′R,7′S,8′E,11′S,12′R)-6-chloro-11′,12′-dimethyl-13′,13′-dioxido-15′-oxo-3,4-dihydro-2H-spiro[naphthalene-1,22′-[20]oxa[13]thia[1,14]diazatetracyclo[14.7.2.0^3,6.0^19,24]pentacosa [8,16,18,24]tetraen]-7′-yl)oxy)-N-(2,2,2-trifluoroethyl)acetamide]
IC50 [1]: 0.654 nM | IC50 [2]: 478 nM

COCCNC(=O)CO[C@H]1/C=C/C[C@H](C)[C@@H](C)S(=O)(=O)NC(=O)c2ccc3c(c2)N(C[C@@H]2CC[C@H]21)C[C@@]1(CCCc2cc(Cl)ccc21)CO3 [Example 298, 2-(((1S,3′R,6′R,7′S,8′E,11′S,12′R)-6-chloro-11′,12′-dimethyl-13′,13′-dioxido-15′-oxo-3,4-dihydro-2H-[spiro[naphthalene-1,22′-20]oxa[13]thia[1,14]diazatetracyclo[14.7.2.0^3,6.0^19,24]pentacosa [8,16,18,24]tetraen]-7′-yl)oxy)-N-(2-methoxyethyl)acetamide]
IC50 [1]: 0.425 nM | IC50 [2]: 860 nM

COCCN(C)C(=O)CO[C@H]1/C=C/C[C@H](C)[C@@H](C)S(=O)(=O)NC(=O)c2ccc3c(c2)N(C[C@@H]2CC[C@H]21)C[C@@]1(CCCc2cc(Cl)ccc21)CO3 [Example 299, 2-(((1S,3′R,6′R,7′S,8′E,11′S,12′R)-6-chloro-11′,12′-dimethyl-13′,13′-dioxido-15′-oxo-3,4-dihydro-2H-spiro[naphthalene-1,22′-[20]oxa[13]thia[1,14]diazatetracyclo[14.7.2.0^3,6.0^19,24]pentacosa [8,16,18,24]tetraen]-7′-yl)oxy)-N-(2-methoxyethyl)-N-methylacetamide]
IC50 [1]: 0.275 nM | IC50 [2]: 280 nM

C[C@@H]1[C@@H](C)C/C=C/[C@H](OCC(=O)N(C)CCN(C)C)[C@@H]2CC[C@H]2CN2C[C@@]3(CCCc4cc(Cl)ccc43)COc3ccc(cc32)C(=O)NS1(=O)=O [Example 300, 2-(((1S,3′R,6′R,7′S,8′E,11′S,12′R)-6-chloro-11′,12′-dimethyl-13′,13′-dioxido-15′-oxo-3,4-dihydro-2H-spiro[naphthalene-1,22′-[20]oxa[13]thia[1,14]diazatetracyclo[14.7.2.0^3,6.0^19,24]pentacosa [8,16,18,24]tetraen]-7′-yl)oxy)-N-(2-(dimethylamino)ethyl)-N-methylacetamide]
IC50 [1]: 0.24 nM | IC50 [2]: 817 nM

CONC(=O)CO[C@H]1/C=C/C[C@H](C)[C@@H](C)S(=O)(=O)NC(=O)c2ccc3c(c2)N(C[C@@H]2CC[C@H]21)C[C@@]1(CCCc2cc(Cl)ccc21)CO3 [Example 301, 2-(((1S,3′R,6′R,7′S,8′E,11′S,12′R)-6-chloro-11′,12′-dimethyl-13′,13′-dioxido-15′-oxo-3,4-dihydro-2H-spiro[naphthalene-1,22′-[20]oxa[13]thia[1,14]diazatetracyclo[14.7.2.0^3,6.0^19,24]pentacosa [8,16,18,24]tetraen]-7′-yl)oxy)-N-methoxyacetamide]
IC50 [1]: 0.245 nM | IC50 [2]: 844 nM

C[C@@H]1[C@@H](C)C/C=C/[C@H](OCC(=O)NC2COC2)[C@@H]2CC[C@H]2CN2C[C@@]3(CCCc4cc(Cl)ccc43)COc3ccc(cc32)C(=O)NS1(=O)=O [Example 303, 2-(((1S,3′R,6′R,7′S,8′E,11′S,12′R)-6-chloro-11′,12′-dimethyl-13′,13′-dioxido-15′-oxo-3,4-dihydro-2H-spiro[naphthalene-1,22′-[20]oxa[13]thia[1,14]diazatetracyclo[14.7.2.0^3,6.0^19,24]pentacosa [8,16,18,24]tetraen]-7′-yl)oxy)-N-3-oxetanylacetamide]
IC50 [1]: 0.2 nM | IC50 [2]: 567 nM

C[C@@H]1[C@@H](C)C/C=C/[C@H](OCC(=O)N2CC(O)C2)[C@@H]2CC[C@H]2CN2C[C@@]3(CCCc4cc(Cl)ccc43)COc3ccc(cc32)C(=O)NS1(=O)=O [Example 304, (1S,3′R,6′R,7′S,8′E,11′S,12′R)-6-chloro-7′-(2-(3-hydroxy-1-azetidinyl)-2-oxoethoxy)-11′,12′-dimethyl-3,4-dihydro-2H,15′H-spiro[naphthalene-1,22′-[20]oxa[13]thia[1,14]diazatetracyclo[14.7.2.0^3,6.0^19,24]pentacosa [8,16,18,24]tetraen]-15′-one 13′,13′-dioxide]
IC50 [1]: 0.151 nM | IC50 [2]: 2280 nM

C[C@@H]1[C@@H](C)C/C=C/[C@H](OCC(=O)N2CC(C)(O)C2)[C@@H]2CC[C@H]2CN2C[C@@]3(CCCc4cc(Cl)ccc43)COc3ccc(cc32)C(=O)NS1(=O)=O [Example 305, (1S,3′R,6′R,7′S,8′E,11′S,12′R)-6-chloro-7′-(2-(3-hydroxy-3-methyl-1-azetidinyl)-2-oxoethoxy)-11′,12′-dimethyl-3,4-dihydro-2H,15′H-spiro[naphthalene-1,22′-[20]oxa[13]thia[1,14]diazatetracyclo[14.7.2.0^3,6.0^19,24]pentacosa [8,16,18,24]tetraen]-15′-one 13′,13′-dioxide]
IC50 [1]: 0.177 nM | IC50 [2]: 998 nM

C[C@@H]1[C@@H](C)C/C=C/[C@H](OCC(=O)N2CC(O)(C(F)(F)F)C2)[C@@H]2CC[C@H]2CN2C[C@@]3(CCCc4cc(Cl)ccc43)COc3ccc(cc32)C(=O)NS1(=O)=O [Example 306, (1S,3′R,6′R,7′S,8′E,11′S,12′R)-6-chloro-7′-(2-(3-hydroxy-3-(trifluoromethyl)-1-azetidinyl)-2-oxoethoxy)-11′,12′-dimethyl-3,4-dihydro-2H,15′H-spiro[naphthalene-1,22′-[20]oxa[13]thia[1,14]diazatetracyclo[14.7.2.0^3,6.0^19,24]pentacosa [8,16,18,24]tetraen]-15′-one 13′,13′-dioxide]
IC50 [1]: 1.2 nM | IC50 [2]: 1140 nM

COC1CN(C(=O)CO[C@H]2/C=C/C[C@H](C)[C@@H](C)S(=O)(=O)NC(=O)c3ccc4c(c3)N(C[C@@H]3CC[C@H]32)C[C@@]2(CCCc3cc(Cl)ccc32)CO4)C1 [Example 307, (1S,3′R,6′R,7′S,8′E,11′S,12′R)-6-chloro-7′-(2-(3-methoxy-1-azetidinyl)-2-oxoethoxy)-11′,12′-dimethyl-3,4-dihydro-2H,15′H-spiro[naphthalene-1,22′-[20]oxa[13]thia[1,14]diazatetracyclo[14.7.2.0^3,6.0^19,24]pentacosa [8,16,18,24]tetraen]-15′-one 13′,13′-dioxide]
IC50 [1]: 0.127 nM | IC50 [2]: 302 nM

C[C@@H]1[C@@H](C)C/C=C/[C@H](OCC(=O)N2CC(F)(F)C2)[C@@H]2CC[C@H]2CN2C[C@@]3(CCCc4cc(Cl)ccc43)COc3ccc(cc32)C(=O)NS1(=O)=O [Example 308, (1S,3′R,6′R,7′S,8′E,11′S,12′R)-6-chloro-7′-(2-(3,3-difluoro-1-azetidinyl)-2-oxoethoxy)-11′,12′-dimethyl-3,4-dihydro-2H,15′H-spiro[naphthalene-1,22′-[20]oxa[13]thia[1,14]diazatetracyclo[14.7.2.0^3,6.0^19,24]pentacosa [8,16,18,24]tetraen]-15′-one 13′,13′-dioxide]
IC50 [1]: 0.382 nM | IC50 [2]: 214 nM

C[C@@H]1[C@@H](C)C/C=C/[C@H](OCC(=O)N2CC(N3CCCC3)C2)[C@@H]2CC[C@H]2CN2C[C@@]3(CCCc4cc(Cl)ccc43)COc3ccc(cc32)C(=O)NS1(=O)=O [Example 309, (1S,3′R,6′R,7′S,8′E,11′S,12′R)-6-chloro-11′,12′-dimethyl-7′-(2-oxo-2-(3-(1-pyrrolidinyl)-1-azetidinyl)ethoxy)-3,4-dihydro-2H,15′H-spiro[naphthalene-1,22′-[20]oxa[13]thia[1,14]diazatetracyclo[14.7.2.0^3,6.0^19,24]pentacosa [8,16,18,24]tetraen]-15′-one 13′,13′-dioxide]
IC50 [1]: 0.0805 nM | IC50 [2]: 414 nM

C[C@@H]1[C@@H](C)C/C=C/[C@H](OCC(=O)N2CC[C@H](O)C2)[C@@H]2CC[C@H]2CN2C[C@@]3(CCCc4cc(Cl)ccc43)COc3ccc(cc32)C(=O)NS1(=O)=O [Example 310, (1S,3′R,6′R,7′S,8′E,11′S,12′R)-6-chloro-7′-(2-((3S)-3-hydroxy-1-pyrrolidinyl)-2-oxoethoxy)-11′,12′-dimethyl-3,4-dihydro-2H,15′H-spiro[naphthalene-1,22′-[20]oxa[13]thia[1,14]diazatetracyclo[14.7.2.0^3,6.0^19,24]pentacosa [8,16,18,24]tetraen]-15′-one 13′,13′-dioxide]
IC50 [1]: 0.109 nM | IC50 [2]: 792 nM

C[C@@H]1[C@@H](C)C/C=C/[C@H](OCC(=O)N2CC[C@@H](O)C2)[C@@H]2CC[C@H]2CN2C[C@@]3(CCCc4cc(Cl)ccc43)COc3ccc(cc32)C(=O)NS1(=O)=O [Example 311, (1S,3′R,6′R,7′S,8′E,11′S,12′R)-6-chloro-7′-(2-((3R)-3-hydroxy-1-pyrrolidinyl)-2-oxoethoxy)-11′,12′-dimethyl-3,4-dihydro-2H,15′H-spiro[naphthalene-1,22′-[20]oxa[13]thia[1,14]diazatetracyclo[14.7.2.0^3,6.0^19,24]pentacosa [8,16,18,24]tetraen]-15′-one 13′,13′-dioxide]
IC50 [1]: 0.138 nM | IC50 [2]: 1400 nM
